Test system: placental gene expression

## CCO [alcohol]
5% alcohol group, Mean Contr 4.981165
  Mean 5%, probe set 1385639_at: 4.504
5% alcohol group, Mean Contr 5.05511
  Mean 5%, Inpp1 (1394340_at): 4.704
5% alcohol group, Mean Contr 5.19844
  Mean 5%, RT1-Aw2 (1379496_at): 4.65
5% alcohol group, Mean Contr 5.228085
  Mean 5%, Trp53rk_predicted (1379488_at): 4.923
5% alcohol group, Mean Contr 5.277582
  Mean 5%, Enpp5 (1388926_at): 4.894
5% alcohol group, Mean Contr 5.346211
  Mean 5%, Prdm2_mapped (1381229_at): 4.872
5% alcohol group, Mean Contr 5.471081
  Mean 5%, RGD1564011_predicted (1375191_at): 5.008
5% alcohol group, Mean Contr 5.497342
  Mean 5%, Centa2 (1369725_at): 5.089
5% alcohol group, Mean Contr 5.574571
  Mean 5%, Transcribed locus (1383789_at): 5.342
5% alcohol group, Mean Contr 5.585624
  Mean 5%, Transcribed locus (1392286_at): 5.242
5% alcohol group, Mean Contr 5.601581
  Mean 5%, Mcpt6 (1387334_at): 5.206
5% alcohol group, Mean Contr 5.646626
  Mean 5%, Ggps1 (1377866_a_at): 5.273
5% alcohol group, Mean Contr 5.751838
  Mean 5%, Transcribed locus (1389718_at): 5.09
5% alcohol group, Mean Contr 5.80011
  Mean 5%, Transcribed locus (1377021_at): 5.149
5% alcohol group, Mean Contr 5.816824
  Mean 5%, Cp (1368418_a_at): 5.332
5% alcohol group, Mean Contr 5.867879
  Mean 5%, LOC303515 (1383571_at): 5.339
5% alcohol group, Mean Contr 5.875325
  Mean 5%, Transcribed locus (1389111_at): 5.42
5% alcohol group, Mean Contr 5.991591
  Mean 5%, Transcribed locus (1393980_at): 5.335
5% alcohol group, Mean Contr 6.083112
  Mean 5%, Pcmtd2_predicted (1374454_at): 5.464
5% alcohol group, Mean Contr 6.105485
  Mean 5%, Plek (1390687_at): 5.536
5% alcohol group, Mean Contr 6.195992
  Mean 5%, Cdca7 (1374540_at): 5.287
5% alcohol group, Mean Contr 6.258107
  Mean 5%, Cul2_predicted (1378127_at): 5.629
5% alcohol group, Mean Contr 6.259265
  Mean 5%, Pex6 (1368264_at): 5.664
5% alcohol group, Mean Contr 6.298338
  Mean 5%, St3gal3 (1373607_at): 5.956
5% alcohol group, Mean Contr 6.314496
  Mean 5%, Kbtbd4_predicted (1374614_at): 5.868
5% alcohol group, Mean Contr 6.483711
  Mean 5%, Phyh (1393245_at): 5.646
5% alcohol group, Mean Contr 6.526312
  Mean 5%, LOC287533 (1373627_at): 5.83
5% alcohol group, Mean Contr 6.549543
  Mean 5%, Transcribed locus (1388465_at): 6.133
5% alcohol group, Mean Contr 6.629539
  Mean 5%, Mss4 (1376745_at): 6.082
5% alcohol group, Mean Contr 6.670053
  Mean 5%, Plag1 (1391714_at): 5.859
5% alcohol group, Mean Contr 6.839621
  Mean 5%, Sumf1_predicted (1389833_at): 6.464
5% alcohol group, Mean Contr 6.849002
  Mean 5%, Polr3e_predicted (1374415_at): 6.356
5% alcohol group, Mean Contr 6.859582
  Mean 5%, RGD1308959 (1399108_at): 6.437
5% alcohol group, Mean Contr 6.895168
  Mean 5%, Wig1 (1387021_at): 6.437
5% alcohol group, Mean Contr 6.970231
  Mean 5%, probe set 1379314_at: 6.195
5% alcohol group, Mean Contr 6.981191
  Mean 5%, Ddx59 (1383635_at): 6.627
5% alcohol group, Mean Contr 7.018906
  Mean 5%, Rnd3 (1394077_at): 6.516
5% alcohol group, Mean Contr 7.020197
  Mean 5%, probe set 1393037_at: 6.711
5% alcohol group, Mean Contr 7.252498
  Mean 5%, Slc39a4_predicted (1374366_at): 6.553
5% alcohol group, Mean Contr 7.300542
  Mean 5%, RGD1305243_predicted (1374076_at): 6.98
5% alcohol group, Mean Contr 7.364799
  Mean 5%, Transcribed locus (1393310_at): 6.579
5% alcohol group, Mean Contr 7.420203
  Mean 5%, Gusb (1367901_at): 6.975
5% alcohol group, Mean Contr 7.435411
  Mean 5%, probe set 1392953_at: 6.789
5% alcohol group, Mean Contr 7.471023
  Mean 5%, Crsp9_predicted (1377263_at): 6.737
5% alcohol group, Mean Contr 7.588214
  Mean 5%, probe set 1389582_at: 6.742
5% alcohol group, Mean Contr 7.705027
  Mean 5%, Transcribed locus (1393226_at): 6.779
5% alcohol group, Mean Contr 7.731478
  Mean 5%, RGD1565289_predicted (1375297_at): 6.938
5% alcohol group, Mean Contr 8.125942
  Mean 5%, Zfp207 (1394591_at): 7.43
5% alcohol group, Mean Contr 8.276972
  Mean 5%, Akr7a2 (1367843_at): 7.547
5% alcohol group, Mean Contr 8.308305
  Mean 5%, Tparl (1373392_at): 8.164
5% alcohol group, Mean Contr 8.623529
  Mean 5%, Mcts1 (1388660_at): 8.191
5% alcohol group, Mean Contr 8.793343
  Mean 5%, Hadhsc (1370237_at): 8.481
5% alcohol group, Mean Contr 9.074708
  Mean 5%, Asah1 (1374770_at): 8.62
5% alcohol group, Mean Contr 9.55972
  Mean 5%, Arts1 (1368356_a_at): 9.182
5% alcohol group, Mean Contr 10.12286
  Mean 5%, Ndufb5_predicted (1388304_at): 9.747
5% alcohol group, Mean Contr 10.24563
  Mean 5%, MGC72992 (1389325_at): 9.919
5% alcohol group, Mean Contr 10.46183
  Mean 5%, Vps35_mapped (1372806_at): 10.13
10% alcohol group, Mean Contr 4.981165
  Mean 10%, probe set 1385639_at: 4.259
10% alcohol group, Mean Contr 5.05511
  Mean 10%, Inpp1 (1394340_at): 4.269
10% alcohol group, Mean Contr 5.19844
  Mean 10%, RT1-Aw2 (1379496_at): 4.376
10% alcohol group, Mean Contr 5.228085
  Mean 10%, Trp53rk_predicted (1379488_at): 4.494
10% alcohol group, Mean Contr 5.277582
  Mean 10%, Enpp5 (1388926_at): 4.551
10% alcohol group, Mean Contr 5.346211
  Mean 10%, Prdm2_mapped (1381229_at): 4.661
10% alcohol group, Mean Contr 5.471081
  Mean 10%, RGD1564011_predicted (1375191_at): 4.639
10% alcohol group, Mean Contr 5.497342
  Mean 10%, Centa2 (1369725_at): 4.692
10% alcohol group, Mean Contr 5.574571
  Mean 10%, Transcribed locus (1383789_at): 4.986
10% alcohol group, Mean Contr 5.585624
  Mean 10%, Transcribed locus (1392286_at): 4.791
10% alcohol group, Mean Contr 5.601581
  Mean 10%, Mcpt6 (1387334_at): 4.849
10% alcohol group, Mean Contr 5.646626
  Mean 10%, Ggps1 (1377866_a_at): 4.808
10% alcohol group, Mean Contr 5.751838
  Mean 10%, Transcribed locus (1389718_at): 4.745
10% alcohol group, Mean Contr 5.80011
  Mean 10%, Transcribed locus (1377021_at): 4.752
10% alcohol group, Mean Contr 5.816824
  Mean 10%, Cp (1368418_a_at): 5.05
10% alcohol group, Mean Contr 5.867879
  Mean 10%, LOC303515 (1383571_at): 5.002
10% alcohol group, Mean Contr 5.875325
  Mean 10%, Transcribed locus (1389111_at): 4.794
10% alcohol group, Mean Contr 5.991591
  Mean 10%, Transcribed locus (1393980_at): 4.943
10% alcohol group, Mean Contr 6.083112
  Mean 10%, Pcmtd2_predicted (1374454_at): 4.612
10% alcohol group, Mean Contr 6.105485
  Mean 10%, Plek (1390687_at): 4.933
10% alcohol group, Mean Contr 6.195992
  Mean 10%, Cdca7 (1374540_at): 4.948
10% alcohol group, Mean Contr 6.258107
  Mean 10%, Cul2_predicted (1378127_at): 5.032
